For 26 compounds, IC50 results are on record in US20240025884A1 (Dong-A ST Co., Ltd., priority 2022, published 2024).

Molecules are shown by their SMILES. Bounds are passed on as bounds.

This assay addresses GCN2 (Homo sapiens (Human), UniProt Q9P2K8). The assay is described as follows: GCN2 Biochemical Assay (TR-FRET, GFP-eIF2S1 substrate phosphorylation). The following applies: read-out: IC50 (GCN2 Inhibitory Activity). Put shortly:
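TR-FRET readout (Ex 340, Em 490/520 nm) after 2–3 h with Tb-labelled phospho-eIF2S1 antibody in stop mix, following a 70 min room-temperature kinase step. Reaction: in-house GCN2, GFP-eIF2S1, ATP, tRNA in Tris pH 7.5 (2× stocks 1.6 nM, 50 nM, 0.2 mM); compounds tested at 10 concentrations, with a phospho-substrate artifact counter-plate.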

GCN2, sequence (Q9P2K8 whole entry): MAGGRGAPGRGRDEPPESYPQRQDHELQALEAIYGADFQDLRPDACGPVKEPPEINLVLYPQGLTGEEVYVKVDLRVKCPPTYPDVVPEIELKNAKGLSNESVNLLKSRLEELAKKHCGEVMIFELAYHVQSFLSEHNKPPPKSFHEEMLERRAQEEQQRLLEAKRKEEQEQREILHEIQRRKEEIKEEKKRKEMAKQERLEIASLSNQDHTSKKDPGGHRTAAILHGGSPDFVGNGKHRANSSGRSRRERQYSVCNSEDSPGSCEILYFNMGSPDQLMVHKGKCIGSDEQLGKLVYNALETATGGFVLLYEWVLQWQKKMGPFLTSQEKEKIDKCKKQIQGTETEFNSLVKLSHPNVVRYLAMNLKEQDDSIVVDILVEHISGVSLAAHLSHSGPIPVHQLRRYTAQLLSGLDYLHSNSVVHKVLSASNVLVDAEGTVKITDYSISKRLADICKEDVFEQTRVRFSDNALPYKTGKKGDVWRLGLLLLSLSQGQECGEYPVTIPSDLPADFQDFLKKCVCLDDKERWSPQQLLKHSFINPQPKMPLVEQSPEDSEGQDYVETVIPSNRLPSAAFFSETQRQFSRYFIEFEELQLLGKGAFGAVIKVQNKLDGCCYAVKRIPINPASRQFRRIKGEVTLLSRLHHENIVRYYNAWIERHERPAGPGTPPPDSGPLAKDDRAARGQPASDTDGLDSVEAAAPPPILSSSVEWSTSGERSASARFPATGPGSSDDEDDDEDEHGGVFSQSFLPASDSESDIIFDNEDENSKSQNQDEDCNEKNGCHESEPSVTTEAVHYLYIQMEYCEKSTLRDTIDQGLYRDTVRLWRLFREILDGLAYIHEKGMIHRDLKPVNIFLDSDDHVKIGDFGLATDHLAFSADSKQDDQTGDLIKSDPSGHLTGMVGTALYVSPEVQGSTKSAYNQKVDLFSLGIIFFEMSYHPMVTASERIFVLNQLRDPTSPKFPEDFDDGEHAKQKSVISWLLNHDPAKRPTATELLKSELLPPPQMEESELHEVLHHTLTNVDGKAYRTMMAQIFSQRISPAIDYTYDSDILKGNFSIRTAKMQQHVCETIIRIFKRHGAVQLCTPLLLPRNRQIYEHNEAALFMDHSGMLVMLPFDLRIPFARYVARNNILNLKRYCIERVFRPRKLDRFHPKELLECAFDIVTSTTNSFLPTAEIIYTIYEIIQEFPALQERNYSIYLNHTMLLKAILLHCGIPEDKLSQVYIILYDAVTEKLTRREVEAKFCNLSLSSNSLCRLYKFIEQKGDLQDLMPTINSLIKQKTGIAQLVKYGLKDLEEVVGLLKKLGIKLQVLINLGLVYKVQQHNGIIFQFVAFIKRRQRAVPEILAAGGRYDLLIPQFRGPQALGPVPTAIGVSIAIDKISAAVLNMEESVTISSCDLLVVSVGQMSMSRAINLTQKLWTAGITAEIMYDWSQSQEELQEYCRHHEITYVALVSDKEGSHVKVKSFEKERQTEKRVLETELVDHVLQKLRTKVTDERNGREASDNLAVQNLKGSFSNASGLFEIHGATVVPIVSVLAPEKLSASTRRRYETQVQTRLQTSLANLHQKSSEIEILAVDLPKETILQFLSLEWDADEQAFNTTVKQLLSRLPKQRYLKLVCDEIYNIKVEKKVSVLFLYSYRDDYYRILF

In the case of `Cc1cnc(Nc2cc(C)n(C)n2)nc1-c1c[nH]c2c(NC(=O)CN3CC[C@H](CC#N)C3)cccc12` [Example 46, (R)-2-(3-(cyanomethyl)pyrrolidin-1-yl)-N-(3-(2-((1,5-dimethyl-1H-pyrazol-3-yl)amino)-5-methylpyrimidin-4-yl)-1H-indol-7-yl)acetamide], the IC50 lay in the range of 100 to 1000 nM.
Then `Cc1cnc(Nc2cc(C)n(C)n2)nc1-c1c[nH]c2c(N3Cc4c(cccc4-c4ccc(S(=O)(=O)N5CCCC5)cc4)C3=O)cccc12` [Example 409, 2-(3-(2-((1,5-dimethyl-1H-pyrazol-3-yl)amino)-5-methylpyrimidin-4-yl)-1H-indol-7-yl)-4-(4-(pyrrolidin-1-ylsulfonyl)phenyl)isoindolin-1-one], with 10 to 100 nM.
In the case of `Cc1cnc(Nc2cc(C)n(C)n2)nc1-c1c[nH]c2c(NC(=O)CN3CC[C@H](Oc4ccc(F)cc4)C3)cccc12` [Example 80, (S)-N-(3-(2-((1,5-dimethyl-1H-pyrazol-3-yl)amino)-5-methylpyrimidin-4-yl)-1H-indol-7-yl)-2-(3-(4-fluorophenoxy)pyrrolidin-1-yl)acetamide], the IC50 is 100 to 1000 nM.
Under `Cc1cnc(Nc2cc(C)n(C)n2)nc1-c1c[nH]c2c(NC(=O)CN3CC[C@H](Oc4ccnc(NCCO)n4)C3)cccc12` [Example 215, (S)-N-(3-(2-((1,5-dimethyl-1H-pyrazol-3-yl)amino)-5-methylpyrimidin-4-yl)-1H-indol-7-yl)-2-(3-((2-((2-hydroxyethyl)amino)pyrimidin-4-yl)oxy)pyrrolidin-1-yl)acetamide] stands less than 10 nM.
Under `Cc1cnc(Nc2cc(C)n(C)n2)nc1-c1c[nH]c2c(NC(=O)C(=O)N3CCC(Oc4ccccn4)C3)cccc12` (centres unmarked) [Example 19] stands 10 to 100 nM; under `Cc1cnc(Nc2cc(C)n(C)n2)nc1-c1c[nH]c2c(N3Cc4ccc(-c5ccncc5)cc4C3=O)cccc12` [Example 380, 2-(3-(2-((1,5-dimethyl-1H-pyrazol-3-yl)amino)-5-methylpyrimidin-4-yl)-1H-indol-7-yl)-6-(pyridin-4-yl)isoindolin-1-one], less than 10 nM; under `Cc1cnc(Nc2cc(C)n(C)n2)nc1-c1c[nH]c2c(N3Cc4c(NC(=O)c5ccncc5)cccc4C3=O)cccc12` [Example 301, N-(2-(3-(2-((1,5-dimethyl-1H-pyrazol-3-yl)amino)-5-methylpyrimidin-4-yl)-1H-indol-7-yl)-1-oxoisoindolin-4-yl)isonicotinamide], less than 10 nM.
Under `Cc1cnc(Nc2cc(C)n(C)n2)nc1-c1c[nH]c2c(NC(=O)CN3CC[C@H](Oc4ncc(-c5ccncc5)cn4)C3)cccc12` [Example 256, (S)-N-(3-(2-((1,5-dimethyl-1H-pyrazol-3-yl)amino)-5-methylpyrimidin-4-yl)-1H-indol-7-yl)-2-(3-((5-(pyridin-4-yl)pyrimidin-2-yl)oxy)pyrrolidin-1-yl)acetamide] stands 10 to 100 nM; under `Cc1cnc(Nc2cc(C)n(C)n2)nc1-c1c[nH]c2c(N3Cc4c(cccc4-c4ccncc4F)C3=O)cccc12` [Example 400, 2-(3-(2-((1,5-dimethyl-1H-pyrazol-3-yl)amino)-5-methylpyrimidin-4-yl)-1H-indol-7-yl)-4-(3-fluoropyridin-4-yl)isoindolin-1-one], less than 10 nM; under `Cc1cnc(Nc2cc(C)n(C)n2)nc1-c1c[nH]c2c(N3Cc4c(NCC5CC5)cccc4C3=O)cccc12` [Example 353, 4-((cyclopropylmethyl)amino)-2-(3-(2-((1,5-dimethyl-1H-pyrazol-3-yl)amino)-5-methylpyrimidin-4-yl)-1H-indol-7-yl)isoindolin-1-one], 10 to 100 nM.
Consider `Cc1cnc(Nc2cc(C)n(C)n2)nc1-c1c[nH]c2c(N3Cc4cc(-c5ccncc5)cnc4C3=O)cccc12` [Example 497, 6-(3-(2-((1,5-dimethyl-1H-pyrazol-3-yl)amino)-5-methylpyrimidin-4-yl)-1H-indol-7-yl)-3-(pyridin-4-yl)-5,6-dihydro-7H-pyrrolo[3,4-b]pyridin-7-one], for which the IC50 was less than 10 nM.
Regarding `Cc1cnc(Nc2cc(C)n(C)n2)nc1-c1c[nH]c2c(N3Cc4c(/C=C/C(=O)NN)cccc4C3=O)cccc12` [Example 366, (E)-3-(2-(3-(2-((1,5-dimethyl-1H-pyrazol-3-yl)amino)-5-methylpyrimidin-4-yl)-1H-indol-7-yl)-1-oxoisoindolin-4-yl)acrylohydrazide], the IC50 was less than 10 nM.
Under `Cc1cnc(NC2CC2)nc1O[C@H]1CCN(CC(=O)Nc2cccc3c(-c4nc(Nc5cc(C)n(C)n5)ncc4C)c[nH]c23)C1` [Example 235, (S)-2-(3-((2-(cyclopropylamino)-5-methylpyrimidin-4-yl)oxy)pyrrolidin-1-yl)-N-(3-(2-((1,5-dimethyl-1H-pyrazol-3-yl)amino)-5-methylpyrimidin-4-yl)-1H-indol-7-yl)acetamide] stands 10 to 100 nM; under `Cc1cnc2c(c1)CN(c1cccc3c(-c4nc(Nc5cc(C)n(C)n5)ncc4C)c[nH]c13)C2=O` [Example 287, 6-(3-(2-((1,5-dimethyl-1H-pyrazol-3-yl)amino)-5-methylpyrimidin-4-yl)-1H-indol-7-yl)-3-methyl-5,6-dihydro-7H-pyrrolo[3,4-b]pyridin-7-one], less than 10 nM.
As for `Cc1cnc(Nc2cc(C)n(C)n2)nc1-c1c[nH]c2c(NC(=O)CN3CC[C@H](Oc4cnc(-c5ccncc5)nc4)C3)cccc12` [Example 259, (S)-N-(3-(2-((1,5-dimethyl-1H-pyrazol-3-yl)amino)-5-methylpyrimidin-4-yl)-1H-indol-7-yl)-2-(3-((2-(pyridin-4-yl)pyrimidin-5-yl)oxy)pyrrolidin-1-yl)acetamide], the IC50 lay within 10 to 100 nM.
For the compound `Cc1cc(O[C@H]2CCN(CC(=O)Nc3cccc4c(-c5nc(Nc6cc(C)n(C)n6)ncc5C)c[nH]c34)C2)no1` [Example 112, (S)-N-(3-(2-((1,5-dimethyl-1H-pyrazol-3-yl)amino)-5-methylpyrimidin-4-yl)-1H-indol-7-yl)-2-(3-((5-methylisoxazol-3-yl)oxy)pyrrolidin-1-yl)acetamide], the IC50 fell in the range of 10 to 100 nM.
Take `Cc1cnc(Nc2cc(C)n(C)n2)nc1-c1c[nH]c2c(NC(=O)CN3CC[C@H](Oc4ccnn4C)C3)cccc12` [Example 104, (S)-N-(3-(2-((1,5-dimethyl-1H-pyrazol-3-yl)amino)-5-methylpyrimidin-4-yl)-1H-indol-7-yl)-2-(3-((1-methyl-1H-pyrazol-5-yl)oxy)pyrrolidin-1-yl)acetamide]: the IC50 is less than 10 nM.
Take `Cc1cnc(Nc2cc(C)n(C)n2)nc1-c1c[nH]c2c(NC(=O)CN3CC[C@H](Oc4ccnc(N)n4)C3)cccc12` [Example 192, (S)-2-(3-((2-aminopyrimidin-4-yl)oxy)pyrrolidin-1-yl)-N-(3-(2-((1,5-dimethyl-1H-pyrazol-3-yl)amino)-5-methylpyrimidin-4-yl)-1H-indol-7-yl)acetamide]: the IC50 is less than 10 nM.
Then `Cc1cnc(Nc2cc(C)n(C)n2)nc1-c1c[nH]c2c(N3Cc4c(NC(=O)c5ccon5)cccc4C3=O)cccc12` [Example 324, N-(2-(3-(2-((1,5-dimethyl-1H-pyrazol-3-yl)amino)-5-methylpyrimidin-4-yl)-1H-indol-7-yl)-1-oxoisoindolin-4-yl)isoxazole-3-carboxamide], with 10 to 100 nM.
Under `Cc1cnc(Nc2cc(C)n(C)n2)nc1-c1c[nH]c2c(N3Cc4c(cncc4C4=CCNCC4)C3=O)cccc12` [Example 499, 2-(3-(2-((1,5-dimethyl-1H-pyrazol-3-yl)amino)-5-methylpyrimidin-4-yl)-1H-indol-7-yl)-7-(1,2,3,6-tetrahydropyridin-4-yl)-1,2-dihydro-3H-pyrrolo[3,4-c]pyridin-3-one] stands less than 10 nM.
Then `Cc1cnc(Nc2cc(C)n(C)n2)nc1-c1c[nH]c2c(N3Cc4c(cccc4-c4cc(F)nc(F)c4)C3=O)cccc12` [Example 427, 4-(2,6-difluoropyridin-4-yl)-2-(3-(2-((1,5-dimethyl-1H-pyrazol-3-yl)amino)-5-methylpyrimidin-4-yl)-1H-indol-7-yl)isoindolin-1-one], with less than 10 nM; and `Cc1cnc(Nc2cc(C)n(C)n2)nc1-c1c[nH]c2c(NC(=O)CN3CC[C@H](C(=O)N4CCSCC4)C3)cccc12` [Example 64, (S)-N-(3-(2-((1,5-dimethyl-1H-pyrazol-3-yl)amino)-5-methylpyrimidin-4-yl)-1H-indol-7-yl)-2-(3-(thiomorpholine-4-carbonyl)pyrrolidin-1-yl)acetamide], with 10 to 100 nM; and `COc1cc(OC)c2c(c1)C(=O)N(c1cccc3c(-c4nc(Nc5cc(C)n(C)n5)ncc4C)c[nH]c13)C2` [Example 280, 2-(3-(2-((1,5-dimethyl-1H-pyrazol-3-yl)amino)-5-methylpyrimidin-4-yl)-1H-indol-7-yl)-4,6-dimethoxyisoindolin-1-one], with 100 to 1000 nM.
Consider `COc1cc(-c2ccc(F)c3c2CN(c2cccc4c(-c5nc(Nc6cc(C)n(C)n6)ncc5C)c[nH]c24)C3=O)ccn1` [Example 481, 2-(3-(2-((1,5-dimethyl-1H-pyrazol-3-yl)amino)-5-methylpyrimidin-4-yl)-1H-indol-7-yl)-7-fluoro-4-(2-methoxypyridin-4-yl)isoindolin-1-one], for which the IC50 is less than 10 nM.
As to `Cc1cnc(Nc2cc(C)n(C)n2)nc1-c1c[nH]c2c(NC(=O)CN3CC[C@H](Oc4nccc(C5=CCOCC5)n4)C3)cccc12` [Example 253, (S)-2-(3-((4-(3,6-dihydro-2H-pyran-4-yl)pyrimidin-2-yl)oxy)pyrrolidin-1-yl)-N-(3-(2-((1,5-dimethyl-1H-pyrazol-3-yl)amino)-5-methylpyrimidin-4-yl)-1H-indol-7-yl)acetamide], the IC50 is 10 to 100 nM.
In the case of `Cc1cnc(Nc2cc(C)n(C)n2)nc1-c1c[nH]c2c(N3Cc4c(cccc4C4=CCCCC4)C3=O)cccc12` [Example 391, 4-(cyclohex-1-en-1-yl)-2-(3-(2-((1,5-dimethyl-1H-pyrazol-3-yl)amino)-5-methylpyrimidin-4-yl)-1H-indol-7-yl)isoindolin-t-one], the IC50 fell in the range of 10 to 100 nM.

As usually defined, the IC50 is the point on the concentration scale where inhibition reaches its midpoint.
